Data from paper PMC10844353, “Dose–response effects on HbA1c and bodyweight reduction of survodutide, a dual glucagon/GLP-1 receptor agonist, compared with placebo and open-label semaglutide in people with type 2 diabetes: a randomised clinical trial” (Diabetologia, 2023).
Values belong to the substance of their own block, whether it stands above or below them.

Columns and labels:
[1] = tested on: participants with type 2 diabetes; assay: Phase II trial: adverse events (safety and tolerability); format: in vivo, human; details: up to 1.0 mg qw open-label
Experimental: (VAS), the Patient’s Global Impression of Severity (PGI-S) for difficulty to control eating behaviours and the 7-point profile of self-monitoring of blood glucose (SMBG).
At each study visit, participants were advised to adhere to the specific recommended diet and exercise plan provided to them during diet and exercise counselling throughout the study.
Survodutide was made available in vials (2 mg/ml, 1 ml fill volume per vial) for dose escalation in Weeks 1–6 and in pre-filled syringes (various concentrations, 0.5 ml fill volume) for maintenance dose in Weeks 7–16. The placebo solution (isotonic sodium chloride) was filled into identical vials or pre-filled syringes. […]
Safety and tolerability were assessed based on the general occurrence of treatment -emergent adverse even ts, safety laboratory parameters, physical examination, vital sign measurements and 12 -lead ECG . ECG services were externally provided and recordings were evaluated centrally.
(§1) MMRM, as for the primary endpoint, and descriptive statistics. All safety endpoints, NASH-related scores and SMBG were analysed descriptively. […]

[2] = tested on: participants with type 2 diabetes; assay: Phase II trial: exploratory biomarkers and NASH-related scores, change from baseline at EoT; format: in vivo, human; details: up to 1.0 mg qw open-label, after 16 weeks
Text: Pharmacodynamic endpoints were the changes from baseline in exploratory biomarkers related to liver function and fatty liver disease (plasma levels of cytokeratin 18 and Pro-C3 and enhanced liver fibrosis [ELF] score), glucose metabolism (adiponectin and fasting insulin and C-peptide levels) and target receptor engagement (amino acid and glucagon levels). Exploratory NASH-related scores (Fibrosis-4 [Fib-4] score, aspartate aminotransferase/platelet ratio [APRI] and non-alcoholic fatty liver disease [NAFLD] fibrosis score) were assessed as safety-related endpoints.
HbA1c was assessed at screening, weeks 1, 5, 8, 12 and 16, EoT and follow-up and analysed centrally. Bodyweight was measured at every visit (screening, weeks 1–8, 12 and 16, EoT and follow-up). Waist circumference was measured at screening, weeks 1 and 6 and EoT. Waist circumference was measured at the midpoint between the lowest rib and the iliac crest. Participants were provided with a glucose monitoring device for weekly use at home during the study. Participant-reported outcomes (Three-Factor Eating Questionnaire [TFEQ-R18 V2], Patient Global Impression of Severity [PGI-S] and a hunger visual analogue scale [VAS]) were assessed at weeks 1, 5 and 8 and EoT in a fasted state. […]
as §1

[3] = tested on: people with type 2 diabetes or overweight/obesity; details: AWARD-5, 52 weeks; cited from earlier work
Text: Glucagon-like peptide-1 receptor (GLP-1R) agonists, such as liraglutide and semaglutide, have been developed for the treatment of both type 2 diabetes and obesity. […] Apart from the well-characterised gastrointestinal (GI) adverse events (AEs), GLP-1R agonists are generally well tolerated. ... || Survodutide (BI 456906) is a novel subcutaneous GCGR/GLP-1R dual agonist in development for the treatment of people with type 2 diabetes, obesity and non-alcoholic steatohepatitis (NASH). Addition of a C18 fatty acid into the acylated peptide, as a half-life-extending principle, allows for weekly administration of survodutide. […] In ... || In addition to semaglutide, other GLP-1R agonists now approved for the treatment of type 2 diabetes have been investigated in combination with background metformin therapy. […] The maximum reduct ... || (+ 2 further places)

[4] = Phase II trial: pharmacokinetics (steady state, dose proportionality of trough concentrations); format: in vivo, human
Experimental: The attainment of steady state and dose proportionality of survodutide were assessed as pharmacokinetic endpoints.
HbA1c was assessed at screening, weeks 1, 5, 8, 12 and 16, EoT and follow-up and analysed centrally. Bodyweight was measured at every visit (screening, weeks 1–8, 12 and 16, EoT and follow-up). Waist circumference was measured at screening, weeks 1 and 6 and EoT. Waist circumference was measured at the midpoint between the lowest rib and the iliac crest. Participants were provided with a glucose monitoring device for weekly use at home during the study. Participant-reported outcomes (Three-Factor Eating Questionnaire [TFEQ-R18 V2], Patient Global Impression of Severity [PGI-S] and a hunger visual analogue scale [VAS]) were assessed at weeks 1, 5 and 8 and EoT in a fasted state. Blood sampling for pharmacokinetics was carried out at every visit (weeks 1–8, 12 and 16, EoT and follow-up) and blood sampling for exploratory biomarkers was carried out at weeks 1, 5, 8 and 12, EoT and follow-up. Safety assessments are described in the ESM Methods.

[5] = in vivo; cited from earlier work

Substance: Semaglutide: GLP-1R agonist; open-label reference control, up to 1.0 mg qw
Participants reporting severe AEs [1]: none | Change from baseline in glucagon [2]: no relevant changes

Substance: dulaglutide: GLP-1R agonist approved for the treatment of type 2 diabetes
Bodyweight reduction [3]: –3.1 kg

Time at which steady state appeared to be achieved (visually) ([4]; DG1–5, plasma trough concentrations): 8 week | Time at which steady state appeared to be achieved (visually) ([4]; DG6, plasma trough concentrations): 12 week | Dose proportionality of plasma trough concentrations ([4]; escalating weekly or biweekly sc doses): approximately dose-proportional
Substance: Survodutide

Substance: oxyntomodulin: endogenous proglucagon derivative, GCGR/GLP-1R dual agonist
Half-life [5]: very short
